Reference: patent publication US7582068B2, “Occlusion resistant hydrocephalic shunt” (Medtronic, Inc., priority 2004, dated 2009)

Test system: tissue in-growth of the catheter lumen
Assay: Tissue in-growth scoring of catheters explanted from rats after 3 months (SEM)
Assay type: in vivo, rat
Conditions: peritoneal and ventricular catheters in rats, MPA compared to drug-free control, dual drug compared to single drug loading
Method: Micophenolic acid (MPA) was loaded into ventricular and peritoneal catheter, design of which is described in the example 16. MPA was loaded into ventricular catheter by solvent impregnation using 50 mg/ml MPA in THF followed by drug loading into a silicone plug with 10 wt % drug concentration. Peritoneal sample was loaded by solvent impregnation using 12.5 mg/ml MPA solution in THF followed by drug loading into a plug using 2.5 mg/ml MPA in silicone rubber. Samples were implanted into rat such that the ventricular sample was placed in a lateral ventricle of the rat and the peritoneal samples was implanted into rat peritoneal cavity. In total 6 ventricular and 6 peritoneal samples were implanted into 6 rats. 12 drug-free catheters of the same configuration were implanted in the other 6 rats as controls. After 3 months samples were explanted and the tissue in-growth was scored between 1 and 5 on a basis of SEM photographs of longitudinally split catheters. […]
Ventricular and peritoneal samples were loaded with RAPA and MPA according to the following procedure: catheters were impregnated with 50 mg/ml of MPA solution in THF followed by plugging with 5 wt % RAPA in silicone Samples were implanted in rats and analyzed as described in the Example 17.

SMILES: COc1c(C)c2c(c(O)c1C/C=C(\C)CCC(=O)O)C(=O)OC2 [MPA, Mycophenolic acid]
- Effect on tissue proliferation (in words): decrease of tissue proliferation
